Measurements from patent publication EP2545917B1, “NOVEL EP4 AGONIST” (Kaken Pharmaceutical Co., Ltd., priority 2010, dated 2011).
pEC50, pIC50, pKi: −log10 of the molar value.

Experiments:
intraocular pressure = assay: Effect on intraocular pressure in rabbits; assay type: in vivo, Japanese white rabbits; conditions: 0.01 w/v% solution, 50 µL/eye
Description: Japanese white rabbits (male, 10 weeks old, BIOTEC Co., Ltd.) were purchased, acclimated for 1 week and used for the study. Compound F solution (0.01 w/v%) was instilled once into the cornea of both eyes at a volume of 50 µL/eye with a micropipette. The intraocular pressure of the right eye was measured and the local irritative effect on the eye was evaluated using the left eye. After surface anesthesia with oxybupranol (Benoxil 0.4% instillation solution), the intraocular pressure was measured before ocular instillation ) and 1, 2, 3, 4, 6 and 8 hr after the instillation using a pneumatonometer (Alcon Ltd.). In addition, the local irritative effect on the eye was evaluated by scoring conjunctival congestion, conjunctival edema, cornea opacity, iris congestion, excretion and eye closure performance. For the evaluation, phosphate buffer was used for the solvent control group, and isopropyl unoprostone (Rescula eye drops, Santen Pharmaceutical Co., Ltd.) was used for comparison. Six animals were used for each group and the results were expressed as average.

IP-10 = assay: Suppressive effect on cytokine production, whole blood stimulated with lipopolysaccharide, ELISA; assay type: cell-based; conditions: human whole blood, indometacin, 48 hr, geometric mean of three volunteers
Mouse EP4 = molecular target: T1, Mouse EP4 (Mus musculus, UniProt P32240); assay: Receptor affinity, tritium-labeled PGE2 binding to membranes of transfected COS-7 cells
T1 construct: expressed in transfected cells; host or cells: COS-7
T1 sequence (P32240 whole entry): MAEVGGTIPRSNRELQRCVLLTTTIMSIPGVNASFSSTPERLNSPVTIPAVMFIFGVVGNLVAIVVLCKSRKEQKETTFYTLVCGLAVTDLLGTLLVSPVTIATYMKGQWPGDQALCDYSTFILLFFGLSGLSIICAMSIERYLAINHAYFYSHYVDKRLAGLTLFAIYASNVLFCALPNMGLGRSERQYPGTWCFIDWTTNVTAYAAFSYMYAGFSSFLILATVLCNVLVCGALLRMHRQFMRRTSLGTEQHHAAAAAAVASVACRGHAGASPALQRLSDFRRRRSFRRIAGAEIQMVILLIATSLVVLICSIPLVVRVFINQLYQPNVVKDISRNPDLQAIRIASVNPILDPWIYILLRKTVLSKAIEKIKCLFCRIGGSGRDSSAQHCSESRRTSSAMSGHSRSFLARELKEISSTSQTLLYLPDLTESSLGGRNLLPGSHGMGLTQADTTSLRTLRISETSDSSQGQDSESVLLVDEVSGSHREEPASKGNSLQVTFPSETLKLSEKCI
Description: (§1) PG receptor affinity of compound F and compound J of the present invention was evaluated. Compound F used was one synthesized in Example 9, and compound J was prepared by separating and purifying the compound synthesized in Example 14 with a column (the same preparations were used in the following Examples). COS-7 cells were transfected with the genes of mouse EP4, human EP1-4 or human IP to overexpress the receptor and then the cell membranes were collected. […] The dissociation constant Kd value was obtained and inhibition constant Ki value of each test compound was determined in a conventional method.

Human EP2 = molecular target: T2, Human EP2 (Homo sapiens, UniProt P43116); assay: as above
T2 construct: expressed in transfected cells; host or cells: COS-7
T2 sequence (P43116 whole entry): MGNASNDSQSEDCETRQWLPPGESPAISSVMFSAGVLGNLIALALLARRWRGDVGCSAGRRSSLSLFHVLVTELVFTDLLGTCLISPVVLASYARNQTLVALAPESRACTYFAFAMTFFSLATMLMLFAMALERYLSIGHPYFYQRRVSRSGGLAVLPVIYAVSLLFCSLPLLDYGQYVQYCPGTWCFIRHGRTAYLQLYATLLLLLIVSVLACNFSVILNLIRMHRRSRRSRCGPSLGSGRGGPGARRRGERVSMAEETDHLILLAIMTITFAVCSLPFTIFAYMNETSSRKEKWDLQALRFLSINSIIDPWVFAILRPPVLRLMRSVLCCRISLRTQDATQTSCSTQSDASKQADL
Description: as §1

[1] = In vitro metabolic stability: β-oxidation reaction in rat liver mitochondria fraction; assay type: in vitro ADME; conditions: parent compound after NADPH-independent β-oxidation reaction, 37°C, 30 min, tested as isomer mixtures, average ± SD of 3 experiments
Description: A mixture of the compound F and compound J of the present invention described in Table 1 (F:J = 52:41, synthesized in Example 14), and a mixture of compounds wherein the tetrazole groups at C-1 of compound F and compound J are respectively substituted by carboxylic acid (referred to as carboxylate form, F:J = 54:34, synthesized in Example 15) were tested.
First, a mitochondria fraction was prepared from the rat liver according to the following Reference A. Then, in reference to the method of […] et al. described in the following References B and C, an NADPH-independent β oxidation reaction was studied. The reaction was carried out at 37°C for 30 min, and stopped with a methanol solution containing a suitable internal standard substance. Each compound was quantified by the internal standard method using a high performance liquid chromatography mass spectrometry apparatus (LC-MS/MS). The compound residual ratio after metabolic reaction of compounds F, J and each carboxylate form thereof in rat mitochondria fraction is shown in the following Table 2 in average ± standard deviation of 3 experiments. Table 2 Residual Ratio of Parent Compound after β-Oxidation Reaction

Human EP1 = molecular target: T3, Human EP1 (Homo sapiens, UniProt P34995); assay: Receptor affinity, tritium-labeled PGE2 binding to membranes of transfected COS-7 cells
T3 construct: expressed in transfected cells; host or cells: COS-7
T3 sequence (P34995 1-402): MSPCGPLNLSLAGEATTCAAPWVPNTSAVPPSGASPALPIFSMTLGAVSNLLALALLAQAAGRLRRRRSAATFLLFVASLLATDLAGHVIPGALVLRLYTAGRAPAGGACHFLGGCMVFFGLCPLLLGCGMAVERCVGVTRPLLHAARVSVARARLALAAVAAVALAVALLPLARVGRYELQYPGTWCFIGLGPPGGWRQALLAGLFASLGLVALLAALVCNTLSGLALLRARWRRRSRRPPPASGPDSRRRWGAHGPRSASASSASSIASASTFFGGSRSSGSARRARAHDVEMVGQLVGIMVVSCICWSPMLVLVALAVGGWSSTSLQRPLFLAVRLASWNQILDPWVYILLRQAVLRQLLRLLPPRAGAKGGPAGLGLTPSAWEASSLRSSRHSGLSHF
Description: PG receptor affinity of compound F and compound J of the present invention was evaluated. Compound F used was one synthesized in Example 9, and compound J was prepared by separating and purifying the compound synthesized in Example 14 with a column (the same preparations were used in the following Examples). COS-7 cells were transfected with the genes of mouse EP4, human EP1-4 or human IP to overexpress the receptor and then the cell membranes were collected. As a labeled ligand, tritium-labeled PGE2 was used for EPs; tritium-labeled iloprost, for IP. The dissociation constant Kd value was obtained and inhibition constant Ki value of each test compound was determined in a conventional method. As a reference control, PGE2 was used for EPs; beraprost sodium (BPS), for IP.

TNF-α = assay: Suppressive effect on cytokine production, CD4 positive T cells stimulated with anti-CD3 and anti-CD28 antibody, ELISA; assay type: cell-based; conditions: human CD4 positive T cells, anti-CD3/anti-CD28, 24 hr; geometric mean of three volunteers
Description: (§2) Blood was collected from 3 healthy volunteers, and CD4 positive T cells were prepared. […] In both cases, the test compound was added 30 min before stimulation.

IL-2 = assay: as above; assay type: cell-based; conditions: human CD4 positive T cells, anti-CD3/anti-CD28, 24 hr; geometric mean of three volunteers
Description: as §2

[2] = tested on: dextran sodium sulfate-induced colitis; assay: Dextran sodium sulfate-induced colitis model in mice (C57BL/6); assay type: in vivo; conditions: C57BL/6 mice, DSS, oral 0.3 and 1 mg/kg once a day
Description: Female C57BL/6 mice (6 weeks old, Japan SLC) were purchased, acclimated for 1 week and used for the study. Except the normal group, the mice were allowed to freely drink a 3 or 2 w/v% DSS (MP Biochemicals, Lot No. 5653H and 5464H, respectively) solution for 1 week to induce colitis. BPS at a dose of 0.3 mg/kg and compound F at doses of 0.3 and 1 mg/kg were orally administered once a day, daily, from the start day of DSS drinking (day 0) to one day before autopsy (day 9). To the control group was orally administered a solvent (1 vol% ethanol solution) at 10 mL/kg in the same manner. The consistency of the stool was graded from score 0 to 4, with normal (0), partly loose stool (1), loose stool (2) and diarrhea (4). The blood feces was also graded from score 0 to 4, with normal (0), partly blood feces (1), blood feces (2) and blood feces plus proctorrhagia (4). The sum of both grades was defined as the stool score (maximum 8). Furthermore, the length of the large intestine was measured in the same manner as in Example 23. Six to 10 animals were used for each group, and the results are shown in average ± standard deviation.

Human EP4 = molecular target: T4, Human EP4 (Homo sapiens, UniProt P35408); assay: EP4 agonist activity, CRE-LUC reporter gene in transfected COS-7 cells; assay type: cell-based
T4 construct: expressed in transfected cells; host or cells: COS-7
T4 sequence (P35408 whole entry): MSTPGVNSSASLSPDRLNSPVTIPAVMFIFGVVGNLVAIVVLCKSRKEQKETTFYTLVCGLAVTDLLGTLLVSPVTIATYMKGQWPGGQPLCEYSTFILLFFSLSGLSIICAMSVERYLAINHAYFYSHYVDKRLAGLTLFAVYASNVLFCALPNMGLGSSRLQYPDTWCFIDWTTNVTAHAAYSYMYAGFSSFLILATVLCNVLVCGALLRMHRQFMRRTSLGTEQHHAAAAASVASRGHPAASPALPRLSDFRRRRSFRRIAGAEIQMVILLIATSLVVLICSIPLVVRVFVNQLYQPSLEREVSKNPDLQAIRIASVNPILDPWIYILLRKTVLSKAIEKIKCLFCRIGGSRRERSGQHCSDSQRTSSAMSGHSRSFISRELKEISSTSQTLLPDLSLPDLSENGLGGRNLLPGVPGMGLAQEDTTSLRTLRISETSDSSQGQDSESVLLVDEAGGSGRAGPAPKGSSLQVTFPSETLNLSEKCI
Description: In brief, human EP4 gene and CRE-LUC reporter gene were transfected into COS-7 cells. The cells were treated with a test compound one day later, and incubated for 3 hr. The cells were washed, a luminescence substrate was added, and the luminescence intensity was measured for the agonist activity.

Compound: Cc1cccc([C@@H](C)[C@H](O)/C=C/[C@@H]2[C@@H]3[C@H](C[C@H]2O)O/C(=C\CCCc2nnn[nH]2)C3(F)F)c1 [Compound F, 4-[(Z)-(1S,5R,6R,7R)-6-[(1E,3R,4R)-3-hydroxy-4-(m-tolyl)-1-pentenyl]-7-hydroxy-2-oxa-4,4-difluoro-bicyclo[3.3.0]octan-3-ylidene]-1-(tetrazol-5-yl)butane]
- decrease in intraocular pressure (intraocular pressure; 1 hr after the instillation): 6.9 mmHg
- decrease in intraocular pressure (intraocular pressure; 2 hr after the instillation): 9.3 mmHg
- decrease in intraocular pressure (intraocular pressure; 6 hr after the instillation): 6.6 mmHg
- pIC50 (IP-10): 8.94
- pKi (Mouse EP4): 7.17
- pKi (Human EP2): 6.24
- Residual ratio [1]: 91.6±6.8%
- pKi (Human EP1): 6.21
- pIC50 (TNF-α): 8.90
- pIC50 (IL-2): 9.29
- effect on the onset of colitis (stool score, colon shortening) [2]: superior prophylactic effect on the onset of colitis
- pEC50 (Human EP4): 8.48
